Data as given in patent US20060293259A1, “Compositions and methods of use of derivatized flavanols” (Mars, Incorporated, priority 2005, published 2006).

How the values were obtained:
[1] = system: platelet/monocyte conjugates; assay: Platelet/monocyte conjugate (P/M) formation in whole blood by flow cytometry; assay type: cell-based, human; conditions: collagen 0.125-0.5 μg/ml, 10 min, aspirin 100 μM; for inhibition of platelet/monocyte conjugation (P/M): first experiment (FIG. 1), test flavanols 0.3 mM; for inhibition of P/M: second experiment (FIG. 2), flavanols 0.3 mM
Experimental: (§1) Platelet aggregation was measured using a platelet counting technique, and formation of platelet/monocyte conjugates (P/M) and platelet/neutrophil conjugates (P/N) by flow cytometry. In later experiments the activation state of platelets associated with leukocytes (CD62P) was also measured and also the activation state of the leukocytes themselves (CD11b).
(§2) Flow cytometry was carried out using commercially available fluorescent labelled antibodies on a Facscan (Becton Dickinson, UK) equipped with a 5 W laser operating at 15 mW power and a wavelength of 488 nm or an LSRII flow cytometer (Becton Dickinson, UK) equipped with an additional red Trigon laser operating at a wavelength of 633 nm.
(§3) Blood was obtained from healthy volunteers, who denied taking any aspirin or non-steroidal anti-inflammatory drugs (NSAID) in the previous 10 days. This blood was dispensed into graduated polystyrene tubes that contained hirudin (final concentration 50 μg/ml) and a small volume of the flavanol under investigation or ethanol as control. The final concentration of ethanol in the blood was always 0.3%. In some experiments, aspirin (ASA) or saline as control was also included in the tube. The tubes were then capped and inverted three times to ensure adequate mixing then placed in the MSA at 37° C. for 30 min before the experiments were performed, during which time the blood was left undisturbed. A further sample of blood was taken into a commercially prepared vacutainer tube that contained K2EDTA as anticoagulant.
(§4) Platelet-leukocyte conjugate formation was measured in the same stirred samples used to measure platelet aggregation. Sub samples were taken 4 min or 10 min following the addition of agonist and transferred into the appropriate antibody or antibody mixture. These were then incubated in the dark at room temperature for not less than 20 min. Following red cell lysis and a washing procedure the cell suspensions were applied to either the FACScan or the LSRII flow cytometer. Leukocytes were identified by logical gating from dot plots of forward scatter (cell size) and side scatter (cell granularity) profiles acquired with linear amplification. Monocytes were identified by their forward scatter-side scatter profile and CD14 (PE) positivity, while neutrophils were identified in the same way but were negative for CD14 expression. The “pan” leukocyte marker, CD45 (PerCP) was also used to identify the leukocyte population. Fluorescence parameters were acquired with logarithmic amplification. Platelet monocyte (P/M) and platelet neutrophil (P/N) conjugates were quantified as median CD42a (FITC) fluorescence of the monocyte (P/M mf) or neutrophil population (P/N mf). Leukocyte activation was measured by CD11b (AlexaFluor647) expression (CD11b-M for monocytes and CD11b-N for neutrophils). Platelet activation (P-selectin expression) was measured by CD62P (PE) positivity of the platelets associated with leukocytes as (CD62P-M on P/M and CD62P-N on P/N).
The FACScan was used to measure the fluorescent probes in experiments where three colors were used together, but the LSRII was needed in order to study four colors. The LSRII is a more sensitive machine and produces higher fluorescence values (mf) than the FACScan. […]
Blood was obtained from three different volunteers and the platelet aggregation and platelet/leukocyte conjugate formation was measured in response to collagen (0, 0.125, 0.25 and 0.5 μg/ml). […]

[2] = system: platelet/neutrophil conjugates; assay: Platelet/neutrophil conjugate (P/N) formation in whole blood by flow cytometry; assay type: cell-based, human; conditions: collagen 0.125-0.5 μg/ml, 10 min, aspirin 100 μM; for inhibition of platelet/neutrophil conjugate formation (P/N): first experiment (FIG. 1), test flavanols 0.3 mM; for inhibition of P/N: second experiment (FIG. 2), flavanols 0.3 mM
Experimental: as §1, §2, §3, §4
The FACScan was used to measure the fluorescent probes in experiments where three colors were used together, but the LSRII was needed in order to study four colors. The LSRII is a more sensitive machine and produces higher fluorescence values (mf) than the FACScan. Results obtained on the FACScan cannot be directly compared with the results obtained on the LSRII.
Blood was obtained from three different volunteers and the platelet aggregation and platelet/leukocyte conjugate formation was measured in response to collagen (0, 0.125, 0.25 and 0.5 μg/ml). In this experiment the highest collagen concentration used previously (1 μg/ml) was replaced with a lower concentration of collagen (0.125 μg/ml) to optimise the inhibition brought about by the different flavanols. In these experiments (+) catechin (Sigma) was used at 1 mM, aspirin (100 μM) and the test flavanols at 0.3 mM with the exception of EP−(0.1 mM) and 4 mCAT (0.05 mM). […]

[3] = system: CD62P on platelets associated with monocytes and neutrophils; assay: Platelet activation (CD62P, P-selectin) on platelets associated with leukocytes; assay type: cell-based, human; conditions: FIG. 2; collagen 0.125-0.5 μg/ml; 10 min; flavanols 0.3 mM, aspirin 100 μM
Experimental: as §1, §2
Blood was obtained from healthy volunteers, who denied taking any aspirin or non-steroidal anti-inflammatory drugs (NSAID) in the previous 10 days. This blood was dispensed into graduated polystyrene tubes that contained hirudin (final concentration 50 μg/ml) and a small volume of the flavanol under investigation or ethanol as control. […]
(§5) Platelet-leukocyte conjugate formation was measured in the same stirred samples used to measure platelet aggregation. […] Fluorescence parameters were acquired with logarithmic amplification. Platelet monocyte (P/M) and platelet neutrophil (P/N) conjugates were quantified as median CD42a (FITC) fluorescence of the monocyte (P/M mf) or neutrophil population (P/N mf). Leukocyte activation was measured by CD11b (AlexaFluor647) expression (CD11b-M for monocytes and CD11b-N for neutrophils). Platelet activation (P-selectin expression) was measured by CD62P (PE) positivity of the platelets associated with leukocytes as (CD62P-M on P/M and CD62P-N on P/N).
From this point on it was decided to include measures of the extent of the activation of both platelets and leukocytes in the conjugates that formed following addition of collagen to blood. P-selectin (CD62P) was measured on the platelets associated with leukocytes in the conjugates that formed. Leukocyte activation was measured as the amount of CD11b that was expressed. […]

platelets in whole blood = assay: Collagen-induced platelet aggregation in whole blood (platelet counting); assay type: cell-based, human; conditions: aspirin 100 μM; for inhibition of collagen-induced platelet aggregation: first experiment (FIG. 1), collagen 0.125, 0.25, 0.5 μg/ml, 4 and 10 min, test flavanols 0.3 mM, mean of n=9; for inhibition of collagen induced aggregation: second experiment (FIG. 2), collagen 0.125-0.5 μg/ml, 4 min, flavanols 0.3 mM, n=9
Experimental: as §1
Blood samples were studied using the Multi-Sample Agitator (MSA) produced by the Medical Engineering Unit (University of Nottingham). The MSA is used to maintain blood samples at 37° C. and to agitate small samples of blood at a stir speed of 1,000 rpm as required.
as §3
Following a 30 min pre-incubation period, aliquots of blood (480 μl) were dispensed into small polystyrene tubes each containing a stir bar and stirred for 2 min in the MSA. After 2 min a solution (20 μl) of agonist or vehicle control were added to the tubes. These were then stirred in the MSA for up to 10 min at which time the platelet aggregates were fixed by mixing a small sub sample with fixative solution in a 1:2 ratio (v/v). The platelet count in the fixed samples was determined using the UltraFlo-100 Whole Blood Platelet Counter. Platelet aggregation was calculated as the percentage loss of single platelets with reference to the platelet count of the EDTA sample.
Blood was obtained from three different volunteers and the platelet aggregation and platelet/leukocyte conjugate formation was measured in response to collagen (0, 0.125, 0.25 and 0.5 μg/ml). In this experiment the highest collagen concentration used previously (1 μg/ml) was replaced with a lower concentration of collagen (0.125 μg/ml) to optimise the inhibition brought about by the different flavanols. In these experiments (+) catechin (Sigma) was used at 1 mM, aspirin (100 μM) and the test flavanols at 0.3 mM with the exception of EP−(0.1 mM) and 4 mCAT (0.05 mM). Aggregation was measured at 4 and 10 min following agonist addition and platelet/leukocyte conjugate formation only at 10 min.
The absolute response of the blood from the different volunteers to collagen varied. This meant that the relative inhibitory effects of a flavanol was dependent on the volunteer's responsiveness to the particular collagen concentration used. For this reason it was decided that an appropriate means of analysing the results, for comparative purposes, would be to calculate the mean values for each flavanol irrespective of the collagen concentration used. (Because, for each of the three blood samples three concentrations of collagen were used, the results are each the means (±sem) of nine individual values).
Blood was obtained from three different volunteers and the platelet aggregation (4 min) and platelet/leukocyte conjugate formation (10 min) was measured in response to collagen (0, 0.125, 0.25 and 0.5 μg/ml). At the same time the activation of platelets and leukocytes in the conjugates were measured by incubation with CD62P and CD11b antibodies. In these experiments aspirin was used at a concentration of 100 μM and derivatized flavanols and procyanidins at 0.3 mM with the exception of EP-(0.1 mM) and 4mCAT (0.05 mM). […]

[4] = system: human umbilical vein endothelial cell (HUVEC); assay: NO production (NOx in culture medium) by HUVEC; assay type: cell-based; conditions: for effect on NO production, chronic effect test: 5 subsequent doses, each for 24 hours; for effect on NO production, acute effect test: single dose, 2 and 24 hours, 100 nM, and 10 μM
Experimental: Alkylated compounds, obtained as described in Example 1, were investigated for their effect on nitric oxide (NO) production and vasorelaxation using serum-free human umbilical vein endothelial cell (HUVEC) culture system in vitro. NO production by endothelial cells and relaxation of pre-constricted aortic rings are two main markers for evaluating cardiovascular effects of test compounds.
HUVECs obtained from a single donor were cultured in serum free, low protein (0.5 g/l), antibiotic-free cell culture medium supplemented with essential growth factors, nutrients and minerals. […] The cell culture medium was substituted with apo-transferrin, superoxide dismutase, and catalase to exclude secondary effects of test compounds involving their auto-oxidation mediated hydrogen peroxide formation.
(§6) Test compounds were evaluated with respect to their potential to acutely (2 hours) and chronically (5 doses given in a 24 h period) modulate NO production. Positive controls (acetylcholine and/or histamine) and negative control L-NNMA (NO synthase inhibitor) were included in all experiments. Cell counts and total protein were used to assess intra-assay variation. Potential toxic effects of tested compounds were also monitored (MTT reduction was measured).
NO production was evaluated by measuring the total amount of all major nitric oxide end products (NOx, including nitrate, nitrite, nitrosothiols) present in the cell culture medium. […] The amount of NO released from the culture medium was subsequently evaluated by measuring the chemiluminescence emitted during the stoichiometrical reaction between ozone and NO using NO Analyzer (Sievers Instruments, Inc. Boulder, Colo.).
The data presented herein were obtained from three experiments and were expressed as the concentration of NO present (in μmol/l) (as NOx) in the cell culture medium+/−standard deviation (SD). The data were corrected for the NOx intrinsically present in the fully supplemented cell culture medium and normalized with respect to the volume of media from which the sample was drawn. Data were analyzed using Student's t-test with a 95% level of confidence. P values equal to or less than […] were defined as statistically significant.
(§7) For the acute effect test, HUVECs were incubated with a single dose of 4′-O-ethyl (−) epicatechin, 4′-O-methyl (−) catechin, 3′-O-methyl (−) catechin which may be prepared as described in Ex. 1 using (−) catechin as a starting material, for 2 and 24 hours at concentrations of 100 nM, […], and 10 μM at 37 C and 5% CO2.
For the chronic effect test, HUVECs were incubated with 5 subsequent doses of test compounds, each for 24 hours. After each 24 hour treatment, culture medium was replaced.

[5] = system: human umbilical vein endothelial cell (HUVEC); assay: MTT assay for toxic effects in HUVEC; assay type: cell-based; conditions: acute effect test, 100 nM, and 10 μM
Experimental: as §6, §7

[6] = system: CD11b on monocytes and neutrophils; assay: Leukocyte activation (CD11b expression) on monocytes and neutrophils; assay type: cell-based, human; conditions: FIG. 2; collagen 0.125-0.5 μg/ml; 10 min; flavanols 0.3 mM, aspirin 100 μM
Experimental: as §1
Flow cytometry was carried out using commercially available fluorescent labelled antibodies on a Facscan (Becton Dickinson, UK) equipped with a 5 W laser operating at 15 mW power and a wavelength of 488 nm or an LSRII flow cytometer (Becton Dickinson, UK) equipped with an additional red Trigon laser operating at a wavelength of 633 nm. […]
as §5, with “P/N). […]” for “P/N).”

Row | Molecule | inhibition of platelet/monocyte conjugation (P/M) [1] | inhibition of P/M [1] | inhibition of platelet/neutrophil conjugate formation (P/N) [2] | inhibition of P/N [2] | inhibition of platelet activation (CD62P) on monocytes and neutrophils [3] | inhibition of collagen-induced platelet aggregation (platelets in whole blood) | inhibition of collagen induced aggregation (platelets in whole blood) | effect on NO production, chronic effect test [4] | effect on NO production, acute effect test [4] | toxic effects (MTT assay) [5] | inhibition of leukocyte activation (CD11b on monocytes and neutrophils) [6] | effect on NO production, chronic effect test ([4]; 10 μM concentration, p=0.004)
1 | COc1cc(C2Oc3cc(O)cc(O)c3CC2O)ccc1O (stereo not shown) [3mCAT, 3′OMe catechin] | significant effect | significant effect | among the most effective | most effective | best inhibited | significant effect | among the most effective |  |  |  |  | 
2 | COc1ccc([C@H]2Oc3cc(O)cc(O)c3C[C@@H]2O)cc1O [4′-O-methyl (−) catechin] |  |  |  |  |  |  |  | no statistically significant effect | no statistically significant effect | did not have toxic effects |  | 
3 | 3′-O-methyl (−) catechin |  |  |  |  |  |  |  | no statistically significant effect | no statistically significant effect | did not have toxic effects |  | 
4 | COc1ccc(C2Oc3cc(O)cc(O)c3CC2O)cc1O (stereo not shown) [4mEPCAT, 4′OMe epicatechin] | significant effect | significant effect | among the most effective | most effective | best inhibited | significant effect | among the most effective |  |  |  | among the most effective | 
5 | CC(=O)Oc1ccccc1C(=O)O [ASA, acetyl salicylic acid, reference compound] | effectively inhibited |  | effectively inhibited | expected effects | expected effects | effectively inhibited | expected effects |  |  |  | no effect | 
6 | CCOc1ccc([C@H]2Oc3cc(O)cc(O)c3C[C@H]2O)cc1O [4′-O-ethyl (−) epicatechin] |  |  |  |  |  |  |  |  | no statistically significant effect | did not have toxic effects |  | statistically significant increase
